{"source": "patent US20050095299A1", "about": "“Controlled release analgesic suspensions” (priority 2003, published 2005)", "data": [{"assay": "Therapeutic duration of action of an immediate release dose (from dosing instructions in labeling)", "format": "in vivo", "text": "As used herein, “ATDAIRD” shall mean the average therapeutic duration of action of an effective immediate release dose” of a particular active ingredient. […] The therapeutic duration of action of a particular active ingredient can readily be determined from the dosing instructions in the labeling for immediate release products containing that particular active ingredient.", "units": {"ATDAIRD (average therapeutic duration of action of an effective immediate release dose)": "h"}, "values": [{"smiles": "CC(C)Cc1ccc(C(C)C(=O)O)cc1", "note": "(stereo not drawn) [ibuprofen, 2-(4-isobutylphenyl)-propionic acid]", "ATDAIRD (average therapeutic duration of action of an effective immediate release dose)": 5}, {"smiles": "CC(C(=O)O)c1cccc(C(=O)c2ccccc2)c1", "note": "(stereo not drawn) [ketoprofen]", "ATDAIRD (average therapeutic duration of action of an effective immediate release dose)": 5}, {"smiles": "COc1ccc2cc([C@H](C)C(=O)O)ccc2c1", "note": "[naproxen]", "ATDAIRD (average therapeutic duration of action of an effective immediate release dose)": 10}]}]}
